In patent US8445490B2, “Compounds for the treatment of hepatitis C” (priority 2009, dated 2013):
Read-outs that look alike come from different tables or passages of the source.

System: HCV pseudoparticles, genotype 1a (H77C) E1 and E2 envelope
Assay: microbe, parasite or virus in culture
Assay type: cell-based, HCV genotype 1a (H77C isolate)
Conditions: Hepatitis C virus, Huh-7, 48 h, HCV pseudoparticles 1a (H77C), Huh7 cells, luciferase 2 days after infection
[1] = read-out: EC50 (nM) 1a (H77C), Table 1a, class
[2] = read-out: EC50 (nM) 1a (H77C), Table 1a
[3] = read-out: EC50 (nM) 1a (H77C), Table 1b, class
[4] = read-out: EC50 (nM) 1a (H77C), Table 1b

Row | SMILES | EC50 [1] [nM] | EC50 [3] [nM] | other results
1 | O=C1NCCNCCNc2nc(nc(OCC(F)(F)F)n2)Nc2ccc1cc2 [Example 0001] | 1000 to 5000 | – | EC50 [2]: 4200 nM
2 | O=C1NCCCCCCCCNc2nc(nc(OCC(F)(F)F)n2)Nc2ccc1cc2 [Example 0002] | 0.1 to 100 | – | –
3 | O=C1NCCCCCCCCCCNc2nc(nc(OCC(F)(F)F)n2)Nc2ccc1cc2 [Example 0003] | 100 to 1000 | – | EC50 [2]: 101 nM
4 | O=C1NCCCOCCCCOCCCNc2nc(nc(OCC(F)(F)F)n2)Nc2ccc1cc2 [Example 0004] | 0.1 to 100 | – | EC50 [2]: 48.4 nM
5 | CC(=O)N1CCNC(=O)c2ccc(cc2)Nc2nc(nc(OCC(F)(F)F)n2)NCC1 [Example 0005] | 1000 to 5000 | – | –
6 | O=C1NCCCCNC(=O)C2(CC2)Nc2nc(nc(OCC(F)(F)F)n2)Nc2ccc1cc2 [Example 0006] | 1000 to 5000 | – | –
7 | O=C1N[C@H]2CNC[C@@H]2C(=O)NCCCCCCOc2ccc(cc2)CNc2nc(nc(OCC(F)(F)F)n2)Nc2ccc1cc2 [Example 0007] | 0.1 to 100 | – | EC50 [2]: 8.31 nM
8 | CN(C)C(N1C[C@@H]2NC(=O)c3ccc(cc3)Nc3nc(nc(OCC(F)(F)F)n3)NCc3ccc(cc3)OCCCCCCNC(=O)[C@H]2C1)=[N+](C)C [Example 0008] | 0.1 to 100 | – | –
9 | CC(C)(C)OC(=O)N1CCN(CC2CNC(=O)c3ccc(cc3)Nc3nc(nc(OCC(F)(F)F)n3)NCc3ccc(cc3)OC/C=C/CO2)CC1 (stereo not shown) [Example 0009] | 100 to 1000 | – | –
10 | O=C1NCC(CN2CCNCC2)OC/C=C/COc2ccc(cc2)CNc2nc(nc(OCC(F)(F)F)n2)Nc2ccc1cc2 (stereo not shown) [Example 0010] | 1000 to 5000 | – | –
11 | O=C1NC(C2CCCNC2)C(=O)NCCCCCCOc2ccc(cc2)CNc2nc(nc(OCC(F)(F)F)n2)Nc2ccc1cc2 (stereo not shown) [Example 0011] | 0.1 to 100 | – | EC50 [2]: 62.8 nM
12 | O=C1NCCCCCCCCCCCCNC(=O)c2ccc(cc2)Nc2nc(nc(OCC(F)(F)F)n2)NCc2ccc1cc2 [Example 0034] | 1000 to 5000 | – | –
13 | O=C1NCCCOCCOCCOCCCNC(=O)c2ccc(cc2)Nc2nc(nc(OCC(F)(F)F)n2)NCc2ccc1cc2 [Example 0036] | 1000 to 5000 | – | –
14 | O=C1NCCCCCCCCCNC(=O)c2ccc(cc2)Nc2nc(nc(OCC(F)(F)F)n2)NCc2ccc1cc2 [Example 0037] | 100 to 1000 | – | –
15 | O=C1NCCCCCCCCCCCNC(=O)c2ccc(cc2)Nc2nc(nc(OCC(F)(F)F)n2)NCc2ccc1cc2 [Example 0038] | 100 to 1000 | – | EC50 [2]: 840 nM
16 | O=C1CCCCCCCCC(=O)NCc2ccc(cc2)Nc2nc(nc(OCC(F)(F)F)n2)NCc2ccc(cc2)CN1 [Example 0064] | 100 to 1000 | – | EC50 [2]: 407 nM
17 | O=C1NS(=O)(=O)C/C=C/CCOc2ccc(cc2)CNc2nc(nc(OCC(F)(F)F)n2)Nc2ccc1cc2 [Example 3004] | 1000 to 5000 | – | EC50 [2]: 2940 nM
18 | O=C1NS(=O)(=O)C/C=C/CCCCOc2ccc(cc2)CNc2nc(nc(OCC(F)(F)F)n2)Nc2ccc1cc2 [Example 3006] | 1000 to 5000 | – | –

Row | SMILES | EC50 [1] [nM] | EC50 [3] [nM] | other results
19 | O=C1CCNC(=O)c2ccc(cc2)Nc2nc(nc(OCC(F)(F)F)n2)NCc2ccc(cc2)OC/C=C/CS(=O)(=O)N1 [Example 3008] | 100 to 1000 | – | –
20 | O=C1CCNC(=O)c2ccc(cc2)Nc2nc(nc(OCC(F)(F)F)n2)NCc2ccc(cc2)OC/C=C\CS(=O)(=O)N1 [Example 3009] | 100 to 1000 | – | –
21 | O=C1NCCCNCCCOc2ccc(cc2)C2(CC2)Nc2nc(nc(OCC(F)(F)F)n2)Nc2ccc1cc2 [Example 5001] | – | 0.1 to 100 | –
22 | CCOC(=O)N1CCCNC(=O)c2ccc(cc2)Nc2nc(nc(OCC(F)(F)F)n2)NC2(CC2)c2ccc(cc2)OCCC1 [Example 5002] | – | 0.1 to 100 | –
23 | CCC(=O)N1CCCCNC(=O)c2ccc(cc2)Nc2nc(nc(OCC(F)(F)F)n2)NC2(CC2)c2ccc(cc2)OCCC1 [Example 5005] | – | 0.1 to 100 | –
24 | CC(C)(C)NC(=O)N1CCCOc2ccc(cc2)CNc2nc(nc(OCC(F)(F)F)n2)Nc2ccc(cc2)C(=O)NCC1 [Example 6001] | – | 0.1 to 100 | –
25 | CC(C)NC(=O)N1CCCOc2ccc(cc2)CNc2nc(nc(OCC(F)(F)F)n2)Nc2ccc(cc2)C(=O)NCC1 [Example 6003] | – | 0.1 to 100 | –
26 | CC(C)OC(=O)N1CCCOc2ccc(cc2)CNc2nc(nc(OCC(F)(F)F)n2)Nc2ccc(cc2)C(=O)NCC1 [Example 6004] | – | 0.1 to 100 | –
27 | CCOC(=O)N1CCCOc2ccc(cc2)CNc2nc(nc(OCC(F)(F)F)n2)Nc2ccc(cc2)C(=O)NCC1 [Example 6005] | – | 0.1 to 100 | –
28 | CCC(=O)N1CCCOc2ccc(cc2)CNc2nc(nc(OCC(F)(F)F)n2)Nc2ccc(cc2)C(=O)NCC1 [Example 6007] | – | 0.1 to 100 | –
29 | CC(C)C(=O)N1CCCOc2ccc(cc2)CNc2nc(nc(OCC(F)(F)F)n2)Nc2ccc(cc2)C(=O)NCC1 [Example 6008] | – | 0.1 to 100 | –
30 | CC(C)(C)NC(=O)N1CCCNC(=O)c2ccc(cc2)Nc2nc(nc(OCC(F)(F)F)n2)NCc2ccc(cc2)OCCC1 [Example 6013] | – | 0.1 to 100 | –
31 | CCOC(=O)N1CCCOc2ccc(cc2)CNc2nc(nc(OCC(F)(F)F)n2)Nc2ccc(cc2)C(=O)NCC(C)(C)C1 [Example 6033] | – | 0.1 to 100 | –
32 | CCCN1CCCOc2ccc(cc2)CNc2nc(nc(OCC(F)(F)F)n2)Nc2ccc(cc2)C(=O)NCC(C)(C)C1 [Example 6039] | – | 0.1 to 100 | –
33 | O=C1NCCCCNCCCNc2nc(nc(OCC(F)(F)F)n2)Nc2ccc1cc2 [Example 7001] | – | 1000 to 5000 | –
34 | O=C1NCCCCCNCCNc2nc(nc(OCC(F)(F)F)n2)Nc2ccc1cc2 [Example 8002] | – | 1000 to 5000 | EC50 [4]: > 50000 nM
35 | O=C1NCCCNCCCCCCCCNc2nc(nc(OCC(F)(F)F)n2)Nc2ccc1cc2 [Example 9001] | – | 100 to 1000 | EC50 [4]: 243 nM
36 | CC(C)(C)OC(=O)N1CCCCCCCCNc2nc(nc(OCC(F)(F)F)n2)Nc2ccc(cc2)C(=O)NCCC1 [Example 9002] | – | 0.1 to 100 | –
